Entries after “also recorded” stand apart in the source; their conditions may differ.
What was measured:
[1] = system: 2furoyl-LIGRLO-NH2-induced paw oedema; assay: PAR2 agonist-induced paw oedema; type: in vivo, Wistar rat
Description: The methods used are based on those previously described (Kelso, E. B., et al. Arthritis Rheum 2007, 56, 765-71; Kelso, E. B., et al. J Pharmacol Exp Ther 2006, 316, 1017-24; and Vergnolle, N. J Immunol 1999, 163, 5064-9). Male Wistar rats (n=3 per group) are used. Briefly, rats are given either 5 or 10 mg/kg of a compound of the present invention (p.o. via gavage in olive oil, approx. 500 μL, weight adjusted). Control animals receive only olive oil (500 μL p.o.). Two hours later, the PAR2 agonist 2-furoyl-LIGRLO (350 μg/paw in saline, 100 μL) is injected into the plantar surface (i.pl.) of the right paw pad using a 30 G needle. The left paw acts as a control, receiving saline only. Paw thickness and width are measured after 30 minutes and hourly using digital calipers (World Precision Instruments, USA) and swelling is calculated in area (mm^2; thickness multiplied by width) and expressed as a percentage change from baseline of each individual paw.
Based on previous methods (Kelso E B et al., J Pharmacol Exp Ther 2006, 316(3):1017-24; Suen J Y et al., Br J Pharmacol 2011, doi: 10.1111/j.1476-5381.2011.01610.x.), PAR2 antagonist 52 (10 mg/kg s.c.; n=4), ENMD-1068 (100 mg/kg s.c.; n=4) or vehicle control (DMSO s.c.; n=2) were administered to male Wistar rats. Baseline paw thickness and width were measured using digital calipers (World Precision Instruments, USA) expressed in area (mm^2; thickness×width). Fifteen minutes later, 2Furoyl-LIGLRO-NH2 (350 μg/paw in 100 μL saline) was injected into of the right hind paw pad (intraplantar, i.pl.). The left hind paw acted as a control, receiving saline only. In a separate experiment, vehicle (500 μL olive oil) versus PAR2 antagonist 52 (10 mg/kg p.o. in 500 μL olive oil) only were administered orally to two groups of rats (4 per group). Two hours later, β-tryptase (human recombinant lung, 20 μg in 100 μL saline) was injected into the right hind paw pad (vehicle in left for control) of all animals in each group. In all experiments, paw swelling was measured and expressed in area (mm^2; thickness×width) and plotted as % change from baseline of each individual paw.

[2] = system: HCHF diet-induced obese rats; assay: Diet-induced obesity and metabolic syndrome, high carbohydrate high fat (HCHF) fed rats; type: in vivo, Wistar rat
Description: Selective PAR2 antagonist 52 was used to evaluate the therapeutic potential of PAR2 antagonism in regulating adiposity, adipose tissue inflammation and metabolic function in rats fed a diet high in carbohydrates and fats (HCHF). Weekly body weight measurements (0-16 weeks) were recorded for Corn Starch CS (●) and High Carbohydrate High Fat (HCHF) (∘)-fed rats (FIG. 13A), as well as for HCHF (∘) and HCHF+PAR2 antagonist 52 (▴)-treated rats (FIG. 13B). In addition, weekly waist circumference measurements were recorded for CS (●), HCHF (∘), HCHF+PAR2 antagonist 52 (▴)-treated rats (FIG. 13 C). FIG. 13 D illustrates […] body composition measurements in CS (▪), HCHF ( ? ), HCHF+PAR2 antagonist 52 (□)-treated rats.
Relative to rats fed a lean diet containing only corn starch (CS), those receiving the HCHF diet for 16 weeks become obese, gaining 54±4% body weight and 206±43% total fat mass, particularly visceral (abdominal) fat from week 0 to 16 (FIGS. 13A-G). FIG. 13F is an image of the abdominal fat pad at 16 weeks in rat given HCHF diet for 16 weeks, but no treatment. […] The increase in PAR2 expression in adipose tissue (FIG. 14A) and its two component fractions, adipocytes and stromal vascular cell (SVC) fractions (FIG. 14B), were all elevated by HCHF feeding, positively correlating with increased adiposity. Local adipose tissue inflammation was also elevated by HCHF feeding (FIG. 15A-F). Findings indicate that a different endogenous signal—saturated fatty acids such as palmitic acid consumed in a HCHF diet—can prime macrophages to increase their expression of PAR2.
The regulation of metabolic parameters by PAR2 antagonist 52 were measured in diet-induced obese rats including systolic blood pressure measurements in CS (●), HCHF (∘) and HCHF+52 (▴)-treated rats (FIG. 16 A), oral glucose tolerance in CS (●), HCHF (∘) and HCHF+PAR2 antagonist 52 (▴)-treated rats (FIG. 16 B), insulin tolerance in CS (●), HCHF (∘), HCHF+PAR2 antagonist 52 (▴)-treated rats (FIG. 16 C), plasma lipid concentrations in CS, HCHF and HCHF+PAR2 antagonist 52-treated rats (FIG. 16 D and plasma liver enzymes in CS, HCHF and HCHF+52-treated rats (FIG. 16 E, *P<0.05 vs CS; **P<0.05 vs HCHF).
FIGS. 17A-C show representative images (20× magnification) of hepatocyte ultrastructure and fat deposition in CS (A), HCHF (B) and HCHF+PAR2 antagonist 52 (C)-treated rats. […] FIG. 17E illustrates metabolic genes in rat liver of different groups. […] Expression of mRNA in was normalized against 18s rRNA and fold change was calculated relative to CS samples. Error bars are means±SEM; *P<0.05, **P<0.01, ***P<0.001.
Regulation of cardiovascular structure and function by PAR2 antagonist 52 in diet-induced obese rats was also measured (FIG. 18), including diastolic stiffness constant measurements in CS, HCHF, HCHF+ compound 52-treated rats (FIG. 18A) and echocardiographic characterization of cardiac structure in CS, HCHF (at 8 weeks before treatment), HCHF and HCHF+ compound 52-treated rats FIG. 18B. FIGS. 18C and D show echocardiographic characterization of cardiac function in CS, HCHF (at 8 weeks before treatment), HCHF and HCHF+ compound 52-treated rats. FIGS. 18E-G illustrate vascular organ bath responses for noradrenaline (E), sodium nitroprusside (F) and acetylcholine (G) in CS (●), HCHF (∘) and HCHF+[…] (▾)-treated rats. Representative images (40× magnification) of interstitial collagen deposition in the left ventricle of CS(H), HCHF (I) and HCHF+PAR2 antagonist 52 (J)-treated rats. FIGS. 18 K and L are graphical representations of the area of collagen deposition in perivascular (K) and interstitial (L) region of the left ventricle. *P<0.05 vs CS; **P<0.05 vs HCHF.

CC[C@H](C)[C@@H](NC(=O)[C@H](CC1CCCCC1)NC(=O)c1ccno1)C(=O)N1CCC2(C=Cc3ccccc32)CC1 [Compound 52]
paw oedema induced by other PAR2 agonists, e.g. trypsin, SLIGRL-NH2 and GB110 ([1]; recently found): inhibit paw oedema | paw oedema induced by 2furoyl-LIGRLO-NH2 ([1]; s.c., 52 10 mg/kg, ENMD-1068 100 mg/kg, agonist 350 μg/paw): reduced the paw oedema; also recorded: strongly reduce the paw oedema | body weight gain ([2]; 10 mg/kg/day oral, weeks 8-16): prevention | metabolic indicators after 16 weeks of HCHF feeding ([2]; 10 mg/kg/day oral, weeks 8-16): attenuated or reversed | total fat mass ([2]; 10 mg/kg/day oral, weeks 8-16): prevention | visceral (abdominal) fat deposition ([2]; 10 mg/kg/day oral, weeks 8-16): prevention | increased steatosis ([2]; HCHF rats): prevented | M1-specific proinflammatory genes in adipose tissue ([2]; HCHF-fed rats): drastic decreased | M2-specific genes (Mcr2, Mgl1, Ym1, Arg1) in adipose tissue ([2]; HCHF-fed rats): restored or upregulated | altered Pparg, Ucp2 and Adipoq genes in retroperitoneal adipose tissue ([2]; HCHF-fed rats): attenuated these changes | altered gene expression in skeletal muscle and pancreas ([2]; HCHF-fed rats): attenuated this altered gene expression | development of diet-induced cardiac fibrosis (collagen deposition) ([2]; HCHF-fed rats): potent inhibitory effect | insulin tolerance test ([2]; HCHF-fed rats): improved responsiveness to insulin; also recorded: comparable insulin sensitivity to untreated CS-fed rats | oral glucose tolerance test ([2]; HCHF-fed rats): improved glucose tolerance | pancreatic genes Glut2 and Beta2 ([2]; suppressed in HCHF-fed rats): restored; also recorded: normalized | liver genes Pparg, Srebf1, Ucp2, Ppargc1a, Cpt and Pnpla2 ([2]; treated versus untreated HCHF rats): upregulation | pancreatic genes Iapp, Atf3, Fas and Id-1 upregulated in HCHF rats ([2]; treatment in vivo): attenuated | elevated triglycerides and systolic blood pressure ([2]; treatment weeks 8-16): except for elevated triglycerides and systolic blood pressure | increase in PAR2 expression in whole adipose, adipocyte and stromovascular cells ([2]; treatment weeks 8-16): prevented | metabolic parameters elevated on HCHF diet (glucose and insulin tolerance, plasma lipids, liver enzymes, cardiac structure and function) ([2]; treatment weeks 8-16): attenuated
